Reference: PubChem BioAssay AID1817 (Sanford-Burnham Center for Chemical Genomics, 2009)
Active and inactive are the calls of the source.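 Rule for the calls: active = displacement of at least 50% at 20 µM, with a fluorescence ratio check between 0.3 and a set limit; inactive = the rest.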

Target: E3 ubiquitin-protein ligase SIAH1 (Homo sapiens) (UniProt Q8IUQ4)
Assay: blockers of Siah-1 interaction with plectin peptide – biochemical, fluorescence polarization, rhodamine-plectin, uHTS, primary screen (AID 1817)
Conditions: Siah-1 / rhodamine-plectin peptide fluorescence polarization

Chain of E3 ubiquitin-protein ligase SIAH1 (Homo sapiens) (Q8IUQ4 whole entry, looked up): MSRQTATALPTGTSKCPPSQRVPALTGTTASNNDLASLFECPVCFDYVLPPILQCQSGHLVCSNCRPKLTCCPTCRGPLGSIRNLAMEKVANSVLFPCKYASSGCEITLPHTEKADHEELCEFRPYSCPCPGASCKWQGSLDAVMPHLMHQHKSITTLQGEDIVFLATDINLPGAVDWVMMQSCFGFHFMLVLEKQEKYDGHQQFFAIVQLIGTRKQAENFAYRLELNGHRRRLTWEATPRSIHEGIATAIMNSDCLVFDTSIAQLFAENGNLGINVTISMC

Structure (SMILES) | IC50
CSc1n[nH]c(NCc2ccc(Cl)cc2)n1 | > 200 µM (inactive)
CCn1c(O)c(C=Nc2ccc(N3CCOCC3)cc2)c(=O)n(CC)c1=S | > 200 µM (inactive)
COCCCn1c(N)c(C(=O)NCc2ccco2)c2nc3ccccc3nc21 | > 200 µM (inactive)
COc1ccc(CCNC(=O)CCC(=O)N2CCOc3ccc(C)cc32)cc1OC | > 200 µM (inactive)
O=C(O)c1cc(Cl)c(Cl)cc1C(=O)Nc1cccc2cccnc12 | > 200 µM (inactive)
COc1ccc(CNC(=S)Nc2cc(OC)ccc2OC)cc1 | > 200 µM (inactive)
Nc1ccc(S(=O)(=O)Nc2ccc(S(N)(=O)=O)cc2)cc1 | > 200 µM (inactive)
O=C(Nc1cccc(Oc2ccc(C(=O)O)c(C(=O)O)c2)c1)c1ccc(-c2ccccc2)cc1 | 8.53 µM
COCCn1nnnc1C(c1cc2ccc(OC)cc2[nH]c1=O)N1CCc2ccccc2C1 (stereo unspecified) | > 200 µM (inactive)
CCN(CC)CCOC(=O)c1ccc(N/C=C(/C#N)c2nc(-c3cc4ccccc4oc3=O)cs2)cc1 | 11.2 µM
CC1CCN(C(=O)C2CCC(C)(C(=O)O)C2(C)C)CC1 (stereo unspecified) | > 200 µM (inactive)
Cc1cc(Cl)ccc1NC(=O)CN1CCC(C(O)(c2ccccc2)c2ccccc2)CC1 | > 200 µM (inactive)
Cc1ccc(-n2cccn2)c([C@@H]2C[C@H]3CN(C)C(=O)[C@]34CCCN24)c1 | > 200 µM (inactive)
CCC(C)N1C(=O)/C(=C/c2c(NCCCOC(C)C)nc3c(C)cccn3c2=O)SC1=S (stereo unspecified) | > 200 µM (inactive)
O=C(NCc1ccc(Cl)cc1)c1cc(-c2cccs2)on1 | 8.13 µM
CC(=O)c1ccc(NC(=O)CC2Nc3cccc4cccc(c34)NC2=O)cc1 (stereo unspecified) | > 200 µM (inactive)
CC1CCCCC1NC(=O)CCS(=O)(=O)c1ccc2c(c1)NC(=O)CO2 (stereo unspecified) | > 200 µM (inactive)
C[C@]12CCC3C(CC=C4C[C@@H](O)CC[C@@]43C)C1CCC2[C@]1(C)CCC(=O)O1 (stereo partly specified) | > 200 µM (inactive)

Structure (SMILES) | IC50
CN1C(=O)NC(c2ccccc2[N+](=O)[O-])C2=C1CCCC2=O (stereo unspecified) | 10.3 µM
Cc1ccc(C(=O)NC2CC3CCCC(C2)N3C(=O)NC2CCCCC2)cc1 (stereo unspecified) | > 200 µM (inactive)
Cc1ccccc1-c1nc2c3ccccc3nc(=S)n2[nH]1 | > 200 µM (inactive)
N#Cc1c(NC(=O)c2ccc(Br)o2)n(-c2ccccc2)c2nc3ccccc3nc12 | > 200 µM (inactive)
O=C(Nc1nc(-c2cc3ccccc3oc2=O)cs1)c1ccco1 | > 200 µM (inactive)
CC1CCN(S(=O)(=O)c2ccc3c(c2)c(=O)c(C(=O)NCc2ccccc2Cl)cn3C)CC1 | > 200 µM (inactive)
CCOC(=O)C1(C)C=C(Nc2ccc(O)cc2)C(=O)N1c1ccc(O)cc1 (stereo unspecified) | > 200 µM (inactive)
O=C(CCN1CCN(Cc2ccccc2)CC1)Nc1cccc(Cl)c1 | > 200 µM (inactive)
Cc1ccc(NC(=O)CCC(=O)NNC(=O)c2ccccc2[N+](=O)[O-])c(C)c1 | > 200 µM (inactive)
COc1cccc(CCC(=O)N(C)C2CCCN(Cc3ccccc3F)C2)c1 (stereo unspecified) | > 200 µM (inactive)
CS(=O)(=O)N1CCN(c2ccc([N+](=O)[O-])c(SCc3ccco3)c2)CC1 | > 200 µM (inactive)
N#C/C(=C\c1c(F)cccc1Cl)C(=O)NC1CC1 | > 200 µM (inactive)
COC(=O)C1C=C2c3cccc4[nH]cc(c34)CC2N(C)C1 (stereo unspecified) | inactive
COc1cc(/C=C2/SC(=S)N(Cc3ccccc3)C2=O)cc(Cl)c1O | > 200 µM (inactive)
Cc1cc(C)nc(N=Nc2c(O)n(Cc3ccc(Cl)cc3)c3ccccc23)n1 | > 200 µM (inactive)
CCOc1ccccc1CNc1ccc(O)cc1 | inactive
CC(=O)c1ccc(S(=O)(=O)Nc2ccc(-c3ccc4nnc(C)n4n3)cc2)cc1 | > 200 µM (inactive)
Cc1ccc(OCCCN2CCOCC2)cc1 | > 200 µM (inactive)
